Test results from ChEMBL document CHEMBL1155322, “Pharmacophore modeling and virtual screening for the discovery of new transforming growth factor-beta type I receptor (ALK5) inhibitors” (Eur J Med Chem, 2009).

Molecular target: T1, TGF-beta receptor type-1 (Homo sapiens, UniProt P36897)
T1 sequence (P36897 whole entry): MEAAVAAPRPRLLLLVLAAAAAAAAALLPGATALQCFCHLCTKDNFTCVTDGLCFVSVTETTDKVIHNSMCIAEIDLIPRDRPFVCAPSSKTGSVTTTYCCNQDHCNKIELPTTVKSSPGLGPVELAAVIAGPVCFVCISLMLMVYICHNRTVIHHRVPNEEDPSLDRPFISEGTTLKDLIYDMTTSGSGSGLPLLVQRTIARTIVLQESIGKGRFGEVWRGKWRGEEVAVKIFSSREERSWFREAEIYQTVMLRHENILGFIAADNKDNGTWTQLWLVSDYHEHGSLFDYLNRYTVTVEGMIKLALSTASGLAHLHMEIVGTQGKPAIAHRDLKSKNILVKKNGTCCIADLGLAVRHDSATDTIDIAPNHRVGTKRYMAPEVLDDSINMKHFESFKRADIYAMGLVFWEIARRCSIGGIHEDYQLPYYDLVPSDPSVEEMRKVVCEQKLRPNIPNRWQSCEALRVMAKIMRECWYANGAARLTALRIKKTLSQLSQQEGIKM

| SMILES | IC50 [nM] |
| --- | --- |
| Fc1ccc(C2C(c3ccncc3)NC3SCCN32)cc1 (stereo unspecified) | 50000 |
| c1ccc(-c2n[nH]cc2-c2ccnc(-c3ccc(CNC4CCCOC4)cc3)c2)nc1 (stereo unspecified) | 47 |
| C#Cc1ccc(CNc2nc(-c3ccc4c(c3)OCO4)c(-c3cccc(C)n3)[nH]2)cc1 | 153 |
| Cc1cccnc1-c1nc(N)sc1-c1ccc2ncccc2n1 | 6 |
| CN(C)CCNC(=O)Nc1ccc2c(-c3c(-c4ccccn4)nn4c3CCC4)ccnc2c1 | 18 |
| Nc1nc(-c2cccc(Cl)n2)c(-c2ccnc3ccccc23)s1 | 1780 |
| Nc1nc(-c2cccc(Cl)c2)c(-c2ccc3ncccc3n2)s1 [GW780159X] | 13 |
| Cc1cccc(-c2[nH]c(CNc3ccc(C#N)cc3)nc2-c2ccc3c(c2)OCO3)n1 | 46 |
| c1ccc(-c2nn3c(c2-c2ccnc4ccccc24)CCC3)nc1 | 104 |
| CCS(=O)(=O)c1ccc2c(-c3c(-c4ccccn4)nn4c3CCC4)ccnc2c1 | 9290 |
| C#Cc1ccc(NCc2nc(-c3ccc4c(c3)OCO4)c(-c3cccc(C)n3)[nH]2)cc1 | 174 |
| C#Cc1cccc(NCc2nc(-c3ccc4nccnc4c3)c(-c3cccc(CC)n3)[nH]2)c1 | 119 |
| Cc1cccc(-c2[nH]c(CNc3ccc(C(N)=O)cc3)nc2-c2ccc3c(c2)OCO3)n1 | 21 |
| CN(C)CCCn1cnc2cc(-c3c(-c4ccccn4)nn4c3CCC4)ccc21 | 398 |
| O=C(O)c1ccc(-c2cc(-c3c[nH]nc3-c3ccccn3)ccn2)cc1 | 27 |
| CC(=O)Nc1ccc2c(-c3c(-c4ccccn4)nn4c3CCC4)ccnc2c1 | 87 |
| Cc1cccc(-c2nn3c(c2-c2ccc4c(c2)ncn4C)CCC3)n1 | 1700 |
| COCCC(=O)Nc1ccc2c(-c3c(-c4ccccn4)nn4c3CCC4)ccnc2c1 | 34 |

| SMILES | IC50 [nM] |
| --- | --- |
| Cc1cccc(-c2nn3c(c2-c2ccnc4cc(Cl)ccc24)CCC3)n1 | 48 |
| CN(C)CCCNC(=O)Nc1ccc2c(-c3c(-c4ccccn4)nn4c3CCC4)ccnc2c1 | 255 |
| CCc1[nH]c(-c2ccc(OC)cc2)nc1-c1ccncc1 [SB-202474] | 30000 |
| CN(C)CC(=O)Nc1ccc2c(-c3c(-c4ccccn4)nn4c3CCC4)ccnc2c1 | 64 |
| CCOc1ccc2c(-c3c(-c4cccc(C)n4)nn4c3CCC4)ccnc2c1 | 88 |
| CN(C)CCCc1cccc(-c2cc(-c3c[nH]nc3-c3ccccn3)ccn2)c1 | 15 |
| CCc1cccc(-c2nn3c(c2-c2ccnc4ccccc24)CCC3)n1 | 71 |
| CCc1cccc(-c2[nH]c(CNc3ccc(C(N)=O)cc3)nc2-c2ccc3c(c2)OCO3)n1 | 46 |
| O=C(Nc1ccc2c(-c3c(-c4ccccn4)nn4c3CCC4)ccnc2c1)OCCO | 79 |
| O=C(CCO)Nc1ccc2c(-c3c(-c4ccccn4)nn4c3CCC4)ccnc2c1 | 32 |
| Nc1ccc2c(-c3c(-c4ccccn4)nn4c3CCC4)ccnc2c1 | 59 |
| CCSc1ccc2c(-c3c(-c4ccccn4)nn4c3CCC4)ccnc2c1 | 110 |
| c1ccc(-c2n[nH]cc2-c2ccc3ncccc3n2)nc1 | 19 |
| COC(=O)Nc1ccc2c(-c3c(-c4ccccn4)nn4c3CCC4)ccnc2c1 | 40 |
| Cc1cccc(-c2[nH]c(NCc3ccc(C#N)cc3)nc2-c2ccc3c(c2)OCO3)n1 | 24 |
| Nc1nc(-c2ccc(F)cc2)c(-c2ccc3ncccc3n2)s1 [GW785804X] | 11 |
| Cc1cccc2ccc(-c3sc(N)nc3-c3ccccn3)nc12 | 30 |
| Fc1ccc(-c2nn3c(c2-c2ccnc4ccccc24)CCC3)nc1 | 151 |
